Here are results for one molecule from US6878522B2, “Methods for the identification of compounds useful for the treatment of disease states mediated by prostaglandin D2” (priority 2000, dated 2005).

Entries after “also recorded” stand apart in the source; their conditions may differ.

Assay [1] deals with T1, CRTH2 (Homo sapiens, UniProt Q9Y5Y4).
T1 construct: prolactin (prolac) signal peptide (N); expressed in transfected cells; host or cells: 300-19 cells (transformed murine pre-B lymphocytes)
T1 sequence (Q9Y5Y4 1-395): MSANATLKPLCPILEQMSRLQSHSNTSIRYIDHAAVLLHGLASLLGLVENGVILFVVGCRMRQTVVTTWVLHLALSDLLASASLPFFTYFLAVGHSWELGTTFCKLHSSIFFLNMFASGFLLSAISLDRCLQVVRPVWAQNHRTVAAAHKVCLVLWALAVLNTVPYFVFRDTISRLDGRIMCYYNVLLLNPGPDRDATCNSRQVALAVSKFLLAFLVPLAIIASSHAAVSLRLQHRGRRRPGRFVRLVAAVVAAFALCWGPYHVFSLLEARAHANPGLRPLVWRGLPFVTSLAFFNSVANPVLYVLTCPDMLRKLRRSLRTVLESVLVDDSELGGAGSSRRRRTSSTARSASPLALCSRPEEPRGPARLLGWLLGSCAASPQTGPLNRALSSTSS
Briefly: [Ca2+]i mobilization assay in 300-19 cells expressing CRTH2. Type of assay: cell-based. Conditions: CRTH2 stable cell line (300-19 transfectants).
Protocol: The ratio of fluorescence produced by the calcium-bound dye to that produce by the unbound dye is used to estimate the intracellular calcium concentration. In one embodiment, for example, the following method can be used. Cells that express CRTH2 are collected, and resuspended in fresh media at ˜2×10^5/ml the day before performing the calcium flux assay. Cells are incubated at 37° C. for not longer than 20-30 minutes, and then spun down and resuspended in 50 ml fresh PTI buffer (Hank's Buffer, pH 7.2-7.4; 10 mM Hepes; 1.6 mM CaCl2) containing Indo-1 AM, pre-warmed to 37° C., at a concentration of 10 million per ml. Cells are excited, and fluorescence is measured using a fluorimeter (Photon Technology Corporation, International). After the readout has stabilized, the time axis is reset, and PGD2 is added at a specific time point (e.g., 20 seconds). After response, the following reagents are added to the cuvette, to release and chelate total calcium, in the following order: 20 μl of 18% Triton X-100, 20 μl of 3M Tris, pH 8.5, and 20 μl of 0.5 M EGTA, pH 8.5. The experiment is repeated in the presence and the absence of a test compound.
Using 300-19 cells (transformed pre-B lymphocytes) expressing CRTH2, a number of mast cell and non-mast cell-derived mediators were screened in a [Ca^2+]i mobilization assay. […]

The target of assay [2] is T1, CRTH2. In words: [3H]-PGD2 binding to 300-19 cells transfected with CRTH2. The protocol:
In a preferred embodiment, a binding assay can be performed as follows: • (a) 300-19 cells (see below) that transiently express CRTH2 are pelleted, and washed twice at room temperature with assay buffer (Hank's balanced saline, including Ca^+2 and Mg^+2, and supplemented with HEPES and sodium bicarbonate). The cells are resuspended at a concentration of 2×10^7 cells/ml. […] After the addition of 50 μl scintillation fluid, the plate is counted in a scintillation counter (1 min per well). […]
To directly determine the binding affinity of CRTH2 for PGD2, the following binding assay was used. […] After the addition of 50 μl scintillation fluid (Packard Microscint 0), the plate was counted in a Packard Topcount scintillation counter (1 min per well). […]
The receptor concentration was calculated to be 79,554 sites/cell.

The test system of assay [3] is human activated T-lymphocytes. Briefly: Chemotaxis of human T lymphocytes (Boyden chamber). Type of assay: cell-based. Conditions: anti-CD3 or anti-CD3 and anti-CD28 stimulated T cells. Here is the method: The chemotactic response of human T lymphocytes to PGD2, murine MDC and murine mSDF was also assayed. Chemotaxis was determined using a 48-well Boyden chamber (Neuroprobe, Cabin John, Md.), and 3.0 μm polycarbonate filters. Cells were resuspended (3-3.5×10^6 cells/ml) in RPMI 1640 supplemented with 10 mM HEPES and 1 mg/ml bovine serum albumin (Sigma, St. Louis, Mo.), and placed into the upper wells of the chamber. The compound to be tested was placed in the lower wells. The chambers were incubated for 90-120 minutes at 37° C. in a humidified CO2 incubator. At the end of the incubation period, the number of migrating cells on the filter (expressed per high power field) were enumerated microscopically. […] In FIG. 4, the chemotactic response of human basophils to PGD2 and C5a is shown.

For `CCCCC[C@H](O)/C=C/[C@H]1C(=O)C[C@H](O)[C@@H]1C/C=C\CCCC(=O)O` [PGD2, prostaglandin D2], the EC50 at CRTH2 [1] was 15 nM. Also, the 50% inhibitory concentration (IC50) at CRTH2 [2] (300-19 CRTH2 transfectants, 2 nM [3H]-PGD2, room temperature) was found to be 18 nM. In addition, at CRTH2 [2] (CRTH2 transfectant, read-out: Kd of [3H]-PGD2 binding (Scatchard plot)), the Kd came out at 18.1 nM. Also, in assay [3], the “chemotactic response of human T lymphocytes” value was “respond specifically to PGD2; also recorded: responsive to PGD2”.

The EC50 is the concentration at which the effect is half-maximal. The IC50 is the concentration needed to halve the response being measured. As usually defined, the Kd is the concentration at which binding is half-saturated.
